In patent publication US4271161A, “Indane-acetic acid aminoesters, their preparation and their use in therapy” (Hexachimie, priority 1978, dated 1981):

Assays:
mice = assay: toxicity: mortality after intraperitoneal administration in mice; format: in vivo
Text: In mice, no mortality was observed after intraperitoneal administration up to doses of: […]

[1] = system: pain reactions (abdominal writhing) induced by phenylbenzoquinone; assay: phenylbenzoquinone-induced writhing in mice (analgesic action); format: in vivo, male mice (SPF, strain OF1); details: for percentage inhibition of pain reactions (abdominal writhing): phenylbenzoquinone i.p. after one hour; for ED50: Mus musculus, po, inhibition of phenylbenzoquinone writhing
Method: The products being tested are administered orally (p.o.) to batches of 12 male mice (SPF, strain OF1), weighing 19-20 g. After one hour, 0.3 ml/mouse of a 0.02% strength solution of phenylbenzoquinone is injected intraperitoneally and the number of pain reactions (abdominal writhing) is counted from the 5th to the 10th minute after the latter treatment. The table below gives the percentage inhibition of these reactions.

SMILES | dose up to which no mortality was observed (mice) [mg/kg] | percentage inhibition of pain reactions (abdominal writhing) ([1]; 8 mg.kg^-1 p.o.) [%] | percentage inhibition of pain reactions (abdominal writhing) ([1]; 16 mg.kg^-1 p.o.) [%] | percentage inhibition of pain reactions (abdominal writhing) ([1]; 32 mg.kg^-1 p.o.) [%] | percentage inhibition of pain reactions (abdominal writhing) ([1]; 64 mg.kg^-1 p.o.) [%] | percentage inhibition of pain reactions (abdominal writhing) ([1]; 128 mg.kg^-1 p.o.) [%] | ED50 [1] [mg/kg] | percentage inhibition of pain reactions (abdominal writhing) ([1]; 1 mg.kg^-1 p.o.) [%] | percentage inhibition of pain reactions (abdominal writhing) ([1]; 2 mg.kg^-1 p.o.) [%] | percentage inhibition of pain reactions (abdominal writhing) ([1]; 4 mg.kg^-1 p.o.) [%]
CC(C(=O)OCCN1CCN(c2cccc(C(F)(F)F)c2)CC1)c1ccc2c(c1)CC(C(C)C)C2 (stereo not drawn) [4 or 6] | 256 | 23 | 40 | 67 | 75 | 75 | 25 | – | – | –
CCC1Cc2ccc(C(C)C(=O)OCCN3CCN(c4cccc(C(F)(F)F)c4)CC3)cc2C1 (stereo not drawn) [2 or 5] | 512 | 64 | 65 | 82 | – | – | 4 | 22 | 47 | 59
